In patent publication US4190665A, “Substituted arylaliphatic acids” (Lipha, Lyonnaise Industrielle Pharmaceutique, priority 1976, dated 1980):

Tests used:
[1] = test system: edema triggered by injecting a carrageenin suspension into the sole of the foot of the rat; experiment: carrageenin-induced edema test (Winter and Risley), anti-inflammatory effect; assay type: in vivo; details: po, orally, read-out: AD30 orally (active dose 30, inhibiting edema development by 30%)
Procedure: (§1) The anti-inflammatory effect of the new drugs was determined in two tests.
(a) In the carrageenin-induced edema test according to Winter, C. A. and Risley, E. A. (Proc. Soc. Exp. Biol. Med. 1962, 111, 544-547) the protection conferred by the drug administered orally to the rat against an edema triggered by injecting a carrageenin suspension into the sole of the foot of the rat was investigated. The table below gives the "active dose 30" (inhibiting edema development by 30%) of both compounds.

[2] = LD50, orally, mouse (acute toxicity); details: in vivo, po
[3] = test system: painful contractures, caused by intraperitoneal injection of a dilute acetic acid solution; experiment: analgesic activity in the mouse by the method of Koster (acetic acid contractures); assay type: in vivo; details: po, orally, read-out: Active Dose 50 (diminished painful contractures by 50%)
Description: The analgesic activity can be determined in the mouse by the method of Koster, R., Anderson, M., Debeer, E. J., Federation Proc., 1959, 18, 412. A determination was made of the active dose 50 of the drug which, administered orally, diminished painful contractures, caused by intraperitoneal injection of a dilute acetic acid solution, by 50%.

[4] = test system: erythema (produced by exposure to ultraviolet radiation) of the shaved back of the guinea pig; experiment: UV erythema test on the guinea pig (Winder et al.), anti-inflammatory effect; assay type: in vivo, albino guinea pig; details: Cavia porcellus, po, orally, read-out: Active Dose 50 (decreased erythema by 50%)
Procedure: as §1
(b) In the UV erythema test on the guinea pig (Winder, C. V., Wax, J., Burr, V., Been, M., Rosiere, C. E., Arch. Int. Pharmacodyn., 116, 261, 1958) the protective activity against precocious inflammation in the albino guinea pig was investigated. A determination was made of the active dose 50 which, administered orally to the animal, decreased erythema (produced by exposure to ultraviolet radiation) of the shaved back of the guinea pig by 50%.

Compound: CC(C(=O)O)c1ccc(-n2cccc2)c([N+](=O)[O-])c1 (centres unmarked) [Compound A, 2-(3'-nitro-4'-[1"-pyrrolyl]phenyl) propionic acid]
- ED30 [1]: 12 mg/kg
- LD50 [2]: 3200 mg/kg
- ED50 [3]: 50 mg/kg
- ED50 [4]: 18.4 mg/kg

Compound: CC(C(=O)O)c1ccc(-n2cccc2)c(N)c1 (centres unmarked) [Compound B, 2-(3'-amino-4'-[1"-pyrrolyl]phenyl) propionic acid]
- ED30 [1]: 12 mg/kg
- LD50 [2]: 3000 mg/kg
- ED50 [3]: 19 mg/kg
- ED50 [4]: 4.7 mg/kg
